Source: patent US9856511B2, “Protease deubiquitinating inhibitor screening” (priority 2011, dated 2018)

What was measured:
[1] = tested on: cellular DUB activity (HCT-116 cells); test: Cellular DUB activity, Ub-AMC cleavage in lysates of treated cells; type: cell-based; details: b-AP15 treated cells
Text: b-AP15 comprises an α-β dienone entity with two sterically accessible β carbons. A structurally similar pharmacophore has been earlier described to be comprised by a class of ubiquitin isopeptidase inhibitors (21). […] In the opinion of the present inventors the similarities in pharmacophore structure and the data showing that b-AP15 inhibits proteasome activity independent of the 20S CP indicate that b-AP15 represents a novel class of proteasome inhibitors that block the deubiquitinating activity of the 19S RP.
HTC-116 cells were treated for 3 h with b-AP15 (1 μM) (FIG. 10). Lysates treated with 10 mM N-ethylmaleimide (NEM) were included as a control for total DUB inhibition. DUB activity was determined from cell lysates by measuring cleavage of the fluorogenic substrate ubiquitin-7-amido-4-methylcoumarin (Ub-AMC).

[2] = tested on: non-proteasomal DUBs (UCH-L1, UCH-L3, USP2CD, USP7CD, USP8CD, BAP1); test: Recombinant non-proteasomal DUBs with ubiquitin-AMC, % activity; type: biochemical
Protocol: In vitro proteasome activity assays using 20S CP (2 nM) (Boston Biochem) were performed at 37° C. in 100-μl reaction buffer (25 mM Hepes, 0.5 mM EDTA, 0.03% SDS). Samples were incubated for 10 min with indicated compound followed by addition of 10 μM Suc-LLVY-AMC, Z-LLE-AMC or Boc-LRR-AMC for the detection of chymotrypsin-like, caspase-like and trypsin-like activity respectively. For DUB inhibition assays 19S RP (5 nM), 26S (5 nM) UCH-L1 (5 nM), UCH-L3 (0.3 nM), USP2CD (5 nM) USP7CD (5 nM) USP8CD (5 nM) and BAP1 (5 nM) were incubated with b-AP15 followed by addition of ubiquitin-AMC (1000 nM). Fluorescence was monitored using Wallac Multilabel counter or Tecan Infinite M1000 equipped with 360 nm excitation and 460 nm emission filters. Substrate overlay assays. Native gel electrophoresis was performed as described (41). In brief 4 μg of purified 26S proteasome (Boston Biochem) was mixed with 10 or 50 μM b-AP15 and incubated at 37° C. for 10 min. Samples were resolved on 4% non-denaturing PAGE. Gels were submerged in assay buffer (20 mM Tris-HCL, 5 mM MgCl2, 1 mM ATP, 0.1 mM Suc-LLVY-AMC) and proteasomes were visualized under UV illumination.
HCT-116 cells were treated for 3 h with b-AP15 (1 μM) and the proteasomes were affinity purified (FIG. 12a). […] Recombinant non-proteosomal DUBs were treated with b-AP15 and % activity determined. […]

[3] = molecular target: T1, human 20S proteasome (Homo sapiens, UniProt P28072+P28074+Q99436); test: In vitro proteasome activity assay (Suc-LLVY-AMC, Z-LLE-AMC, Boc-LRR-AMC); type: biochemical; details: molar excess of b-AP15
T1 construct: purchased Boston Biochem E-360
Protocol: 20S CP contains the β1, β2 and […] proteolytic subunits responsible for caspase-like, trypsin-like and chymotrypsin-like activities of the proteasome, respectively (18).
In vitro proteasome activity assays were performed in black 96-well microtiter plates using human 20S proteasome (Boston Biochem) in reaction buffer (25 mM Hepes, 0.5 mM EDTA, 0.03% SDS) with Suc-LLVY-AMC, Z-LLE-AMC or Boc-LRRAMC used as substrates for proteasome activity. De-ubiquitinase activity assays were performed with human 19S RP (Boston Biochem) with ubiquitin-AMC as substrate. For xenograft studies a 100-μl-cell suspension containing 1×10^6 FaDu head-neck or 2×10^5 Lewis Lung Carcinoma (LLC) cells were injected subcutaneously into the flank of SCID or C57BL/6J mice. Upon tumor take mice were randomized into control or treatment groups and administered with 5 mg kg^−1 b-AP15 or vehicle. In vivo levels of apoptosis and cell death were determined from the detection of caspase cleaved and total levels of cytokeratin-18 in plasma using M30 Apoptosense® and M65 ELISA®s assays (Peviva). […]
In vitro proteasome activity assays using 20S CP (2 nM) (Boston Biochem) were performed at 37° C. in 100-μl reaction buffer (25 mM Hepes, 0.5 mM EDTA, 0.03% SDS). […] Fluorescence was monitored using Wallac Multilabel counter or Tecan Infinite M1000 equipped with 360 nm excitation and 460 nm emission filters. […]

With C=CC(=O)N1C/C(=C\c2ccc([N+](=O)[O-])cc2)C(=O)/C(=C/c2ccc([N+](=O)[O-])cc2)C1 [b-AP15] the “cellular DUB activity (Ub-AMC cleavage)” value [1] was “no reduction in Ub-AMC cleavage”, the “inhibition of recombinant non-proteasomal DUBs” value [2] was “does not inhibit non-proteasomal DUBs” and the “caspase-like, trypsin-like and chymotrypsin-like activities of the proteasome” value [3] was “do not show alteration”.
